Marks after values point to notes of the source that are not given here.

The test system of one assay is Salmonella typhi. As to the kind of experiment: Example 4 irradiation sensitivity (D10) of S. typhi in ground beef. Format: cell-based. To be noted: carvacrol 1.15%, thymol 1.60%. On the procedure: (§1) Irradiation treatments of ground beef samples for D10 and shelf life determination were performed using UC-15B irradiator (MDS-Nordion International Inc., Kanata, ON, Canada) equipped with a ^60 Co source at a dose rate of 14.42 kGy/h). Irradiation doses used for D10 determination were ranged from 0.25 to 0.55 kGy for E. coli, from 0.50 to 2.0 kGy for S. typhi, and from 0.5 to 2.5 kGy for the mixture of indigenous microorganisms of ground beef. The shelf life study was performed on samples irradiated at 0.30, 0.85, and 1.75 kGy for E. coli, S. typhi, and the mixture of indigenous microorganisms of ground beef, respectively. For each active compound concentration tested, a group of non-irradiated samples sened as a control. For D10 determination, samples were analysed immediately after irradiation. For shelf life studies, samples were stored at 4° C. and analysed periodically.
(§2) Microbial analysis was performed by homogenising the samples for 2 mn in sterile peptone water (0.1%) using a Lab-blender 400 stomacher (Laboratory Equipment, London, UK). […]
(§3) The kinetics of bacteria destruction by irradiation with or without the food additives was evaluated by linear regression. Bacterial counts (log CFU/ml) were plotted against irradiation doses or active compounds concentration and D10 values were calculated using the PROC REG procedure of SAS (SAS Institute, Cary, N.C., USA). […]

The subject of the next assay is E. coli. Put plainly: Irradiation sensitivity (D10) of E. coli in ground beef. The class given is cell-based, Escherichia coli (ATCC 25922).
The subject of assay [1] is S. typhi. Put plainly: Irradiation sensitivity (D10) of S. typhi in ground beef. Format: cell-based, Salmonella typhi (ATCC 19430).
The subject of assay [2] is S. typhi. Put plainly: Shelf life study, S. typhi in ground beef irradiated at 0.85 kGy. Format: cell-based, Salmonella typhi. To be noted: stored at 4° C., thymol 1.6%. On the procedure:
as §1
(§4) Microbial analysis was performed by homogenising the samples for 2 mn in sterile peptone water (0.1%) using a Lab-blender 400 stomacher (Laboratory Equipment, London, UK). From this mixture, serial dilutions were prepared and appropriate ones were pour-plated in tryptic soy agar (TSA) (Difco, Laboratories, Detroit, Mich., USA) and incubated at 35° C., 24 hours for the numeration of E. coli and S. typhi. For the ground beef broth, the incubation was performed on Plate Count Agar (PCA; Difco) at 35° C. for 48 h for the numeration mesophilic bacteria, and at 7° C. for 10 days for the numeration of psychrotrophic bacteria. Enterobacteriaceae were numerated on Violet Red Bile Glucose Agar (VRBGA; Difco) 35° C. for 48 hours.
(§5) A shelf life study was undertaken to evaluate the radiation sensitivity during refrigerated storage conditions. Ground beef samples contaminated with E. coli, S. typhi, or a mixture of indigenous micro-organisms were irradiated in presence or absence of selected active compounds. Due to the differences in sensitivity between the micro-organisms under study, the following irradiation doses were used: 0.30 kGy for E. coli, 0.85 kGy for S. typhi, and 1.75 kGy for the mixture of indigenous bacteria. The irradiation doses selected corresponded to the irradiation dose needed to produce 3 log CFU reduction in bacterial population in the control sample (without active compounds).

For another assay, the system named is mesophilic bacteria. Put plainly: Shelf life study, indigenous micro-organisms of ground beef, mesophilic count. The class given is cell-based. Particulars: for shelf life period: 4° C., thymol […]. How it is done:
as §1, §4, §5
(§6) The shelf life study in ground beef contaminated with the mixture of indigenous microorganisms of ground beef was conducted by evaluating mesophilic, psychrotrophic and total Enterobacteriaceae in the samples. […] Irradiation reduced the bacterial counts by various degrees depending on the type of active compound used: 3 log CFU reduction for control (without active compounds), 3.5 and more than 5 log CFU reduction for samples containing thymol and trans-cinnamaldehyde, respectively. […] Bacterial counts in both sarnples remained below detectable levels even after 44 days. […] A similar effect was also observed during storage for irradiated samples containing thymol as compared to samples without thymol. Between day 5 and day 15, a difference of 2 to 3 log CFU was observed between the two groups of samples.

The subject of another assay is psychrotrophic bacteria. Put plainly: Shelf life study, indigenous micro-organisms of ground beef, psychrotrophic count. Format: cell-based. On the procedure:
as §1, §4
A shelf life study was undertaken to evaluate the radiation sensitivity during refrigerated storage conditions. Ground beef samples contaminated with E. coli, S. typhi, or a mixture of indigenous micro-organisms were irradiated in presence or absence of selected active compounds. […]

Assay [3] deals with mixture of indigenous microorganisms of ground beef (mesophilic and psychrotrophic bacteria). Put plainly: Shelf life study, indigenous micro-organisms of ground beef, statements for mesophilic and psychrotrophic bacteria together. Format: cell-based. To be noted: for reduction of bacterial counts by irradiation: control 3 log CFU; for storage time before a bacterial count of approximately 6 log is reached: meat treated with formulation in conjunction with irradiation, about 8 days with irradiation alone. How it is done: as §1, §4, §5, §6

In assay [4] the test system is Mixture of indigenous bacteria. As to the kind of experiment: Example 4 irradiation sensitivity (D10) of indigenous bacteria of ground beef. Particulars: thymol […], trans-cinnamaldehyde […]. The class given is cell-based. How it is done: as §1, §2, §3
[5] abbreviates: ground beef, air, 4° C., carvacrol 1.0% alone or with ascorbic acid 0.5% and/or tetrasodium pyrophosphate 0.1%.
[6] abbreviates: ground beef irradiated at 1.75 kGy, thymol […], trans-cinnamaldehyde […].
Where [7] appears, read: ground beef irradiated at 1.75 kGy, stored at 4° C., trans-cinnamaldehyde […].
[8] abbreviates: trans-cinnamaldehyde alone (no irradiation), stored at 4° C.
Setting [9] is: ground beef packed under MAP (60% O2-30% CO2-10% N2), 4° C., trans-cinnamaldehyde […].
Where [10] appears, read: ground beef packed under air, 4° C., trans-cinnamaldehyde […].
Setting [11] is: ground beef under MAP, trans-cinnamaldehyde […] vs control under the same atmosphere.
Setting [12] is: ground beef under air, trans-cinnamaldehyde […] vs control under the same atmosphere.
The mark [13] stands for this setting: ground beef, MAP vs air, both with trans-cinnamaldehyde […].
Where [14] appears, read: under MAP, trans-cinnamaldehyde […].
Where [15] appears, read: under air, trans-cinnamaldehyde […].

In the case of `Cc1ccc(C(C)C)cc1O` [Carvacrol, carvacrol], the “D10(kGy)” value with Salmonella typhi was 0.316 kGy; with E. coli (setting [5]), 0.057 ± 0.0015^a kGy; in the assay with S. typhi [1] (setting [5]), 0.235 ± 0.0158^a kGy. In addition, the “irradiation dose necessary to completely eliminate E. coli” value in the assay with E. coli (setting [5]) is reported as 0.3 kGy. For the same compound, in the assay with E. coli (ground beef, air, 4° C., carvacrol 1.0% alone or with tetrasodium pyrophosphate 0.1%), the “factor by which the irradiation dose necessary to completely eliminate E. coli is lower than in the absence of active compounds” value is recorded as 2.3. Besides, the “Increase in Sensitivity” value came to 55.5% with E. coli (vs control, negative = protective effect, ground beef, air, 4° C., carvacrol 1.0% alone or with ascorbic acid 0.5% and/or tetrasodium pyrophosphate 0.1%) and 54.7% in the assay on S. typhi [1] (vs control (0.519 kGy), ground beef, air, 4° C., carvacrol 1.0% alone or with ascorbic acid 0.5% and/or tetrasodium pyrophosphate 0.1%). Besides, the “irradiation dose for complete elimination of S. typhi” value with S. typhi [1] (setting [5]) is 1.25 kGy. The “days of storage after which complete inhibition was produced” value in the assay with S. typhi [2] (carvacrol 1.15%) was determined as 22 days.

Turning to `Cc1ccc(C(C)C)c(O)c1` [Thymol, thymol], the shelf life period in the assay with mesophilic bacteria (irradiated samples (1.75 kGy), control 8 days) is reported as 23 days; in the assay with mesophilic bacteria (non-irradiated samples, control 2 days), 8 days; in the assay on psychrotrophic bacteria (non-irradiated samples, 4° C., thymol […], control 2 days) it was 9 days. For the same compound, the “D10(kGy)” value is 0.382 kGy with Salmonella typhi and 0.779 kGy in assay [4]. In addition, the “days of storage after which complete inhibition was produced” value in the assay on S. typhi [2] (carvacrol 1.15%) was 28 days. Besides, in the assay on S. typhi [2] (carvacrol 1.15%, lower than control), the “bacterial counts compared with the irradiated control after 15 days of storage” value is “sinilar in both cases”. In addition, in the assay on S. typhi [2], the “difference between samples irradiated in presence and absence of compound at day 7” value is reported as 3 log CFU. In assay [3] (ground beef irradiated at 1.75 kGy, stored at 4° C., thymol […]), the “complete inhibition during storage” value is “no complete inhibition”. Also, the “level of bacteria observed for irradiated samples during storage” value in assay [3] (ground beef irradiated at 1.75 kGy, stored at 4° C., thymol […], 10^7 without thymol) is on record as 10^4 CFU/g. The “reduction of bacterial counts by irradiation” value in assay [3] (setting [6]) is listed as 3.5 log CFU. Moreover, the “storage time before a bacterial count of approximately 6 log is reached” value in assay [3] stood at 15 days.

Regarding `O=C/C=C/c1ccccc1` [Trans-cinnamaldehyde, trans-cinnamaldehyde], the “days after which complete inhibition of bacterial growth resulted” value was 3 days with mesophilic bacteria (setting [7]) and 1 days in the assay on psychrotrophic bacteria (setting [7]). Moreover, the “bacteria counts at day 44” value with mesophilic bacteria (setting [8]) is recorded as approximately 1 log CFU/g. The “bacterial population reached after 36 days of storage” value in the assay on mesophilic bacteria (without irradiation, stored at 4° C., trans-cinnamaldehyde […]) is listed as 1 log CFU. Further, the “D10(kGy)” value was 0.046 ± 0.001^b* kGy with E. coli (setting [9]); 0.115 ± 0.004^a* kGy in the assay on E. coli (setting [10]); 0.110 ± 0.002^b* kGy in the assay on S. typhi [1] (setting [9]); 0.356 ± 0.005^a* kGy with S. typhi [1] (setting [10]); 0.494 kGy in assay [4]. Also, the “Increase in Sensitivity” value stood at 46.5% in the assay with E. coli (setting [11]), 8.7% in the assay with E. coli (setting [12]), 50.2% in the assay on S. typhi [1] (setting [11]) and 32.3% in the assay with S. typhi [1] (setting [12]). Further, the “increase in irradiation sensitivity by modification of the packaging atmosphere” value in the assay with E. coli (setting [13]) was determined as 60%; in the assay with S. typhi [1] (setting [13]) it was 69.1%. Also, the “irradiation dose needed to completely eliminate E. coli from the ground beef” value with E. coli (setting [14]) was determined as 0.25 kGy; in the assay on E. coli (setting [15]), 0.6 kGy. Also, the “irradiation dose to completely eliminate E. coli from ground beef” value in the assay with E. coli (setting [15]) is given as 0.2 kGy. The “day of storage at which complete inhibition occurred” value with psychrotrophic bacteria (setting [8]) is recorded as 36 days. For the same compound, the results for the “irradiation dose required to completely eliminate S. typhi from the ground beef” value with S. typhi [1] (setting [14]) and with S. typhi [1] (setting [15]) were 0.6 kGy and “around 2 kGy”, respectively. Also, the “irradiation dose required to completely eliminate S. typhi from ground beef” value with S. typhi [1] (under air, trans-cinnamaldehyde 0.89%) was found to be 0.75 kGy. Further, the “days for which bacterial counts remained below detectable levels” value in assay [3] (setting [7]) is on record as not below 44 days. Moreover, the “reduction of bacterial counts by irradiation” value in assay [3] (setting [6]) is on record as “more than 5 log CFU”. In addition, the “storage time before a bacterial count of approximately 6 log is reached” value in assay [3] is “more than 35 days”.
